Test results: patent US11608328B2, “Chemical probes to identify anti-mycobacterial MmpL3 inhibitors” (Creighton University, priority 2019, dated 2023)
Converted amounts (≈) assume the structure as drawn. “And” between values parts separate entries of the source, which are not always exact repeats. Equal values may be shown once. “Also recorded” adds a separate entry of the source. Read-outs that look alike come from different tables or passages of the source. Marks after values point to notes of the source that are not given here.

Assays:
[1] = tested on: MsmgΔmmpL3 expressing wild-type mmpL3tb; test: microbe, parasite or virus in culture; format: cell-based
[2] = tested on: MsmgΔmmpL3 expressing mmpL3tb L189R; format: cell-based, Mycobacterium smegmatis
[3] = tested on: MsmgΔmmpL3 expressing mmpL3tb G253E; format: cell-based, Mycobacterium smegmatis
[4] = tested on: MsmgΔmmpL3 expressing mmpL3tb S288T; format: cell-based, Mycobacterium smegmatis
[5] = tested on: MsmgΔmmpL3 expressing mmpL3tb S309C; format: cell-based, Mycobacterium smegmatis
[6] = tested on: MsmgΔmmpL3 expressing mmpL3tb T311I; format: cell-based, Mycobacterium smegmatis
[7] = tested on: MsmgΔmmpL3 expressing mmpL3tb Q372R; format: cell-based, Mycobacterium smegmatis
[8] = tested on: MsmgΔmmpL3 expressing mmpL3tb L567P; format: cell-based, Mycobacterium smegmatis
[9] = tested on: MsmgΔmmpL3 expressing mmpL3tb S591I; format: cell-based, Mycobacterium smegmatis
[10] = tested on: MsmgΔmmpL3 expressing mmpL3tb F644C; format: cell-based, Mycobacterium smegmatis
[11] = tested on: MsmgΔmmpL3 expressing mmpL3tb V684G; format: cell-based, Mycobacterium smegmatis
[12] = tested on: MsmgΔmmpL3 expressing mmpL3tb V684A; format: cell-based, Mycobacterium smegmatis
[13] = biological target: MmpL3tb (MmpL3^WT) (Mycobacterium tuberculosis, UniProt P9WJV5); format: binding; conditions: 50, 100 and 200 μM
[14] = tested on: MsmgΔmmpL3 expressing mmpL3tb LI89A; test: microbe, parasite or virus in culture; format: cell-based; conditions: Table 2, mutant LI89A
[15] = tested on: MsmgΔmmpL3 expressing mmpL3tb G253R; format: cell-based, Mycobacterium smegmatis
[16] = tested on: MsmgΔmmpL3 expressing mmpL3tb G253W; format: cell-based, Mycobacterium smegmatis
[17] = tested on: MsmgΔmmpL3 expressing mmpL3tb S591W; format: cell-based, Mycobacterium smegmatis
[18] = tested on: MsmgΔmmpL3 expressing mmpL3tb S591G; format: cell-based, Mycobacterium smegmatis
[19] = tested on: MsmgΔmmpL3 expressing mmpL3tb F644C/I/L; format: cell-based, Mycobacterium smegmatis
[20] = tested on: MsmgΔmmpL3 expressing mmpL3tb F644Y; format: cell-based, Mycobacterium smegmatis
[21] = tested on: MsmgΔmmpL3 expressing mmpL3tb V684I; format: cell-based, Mycobacterium smegmatis
[22] = tested on: MsmgΔmmpL3 expressing mmpL3tb V684W; format: cell-based, Mycobacterium smegmatis
[23] = tested on: Mtb; test: MIC values against Mtb used for the PMF assays; format: cell-based, Mycobacterium tuberculosis; conditions: read-out: MIC values
[24] = biological target: purified MmpL3tb protein (Mycobacterium tuberculosis, UniProt P9WJV5); test: Surface Plasmon Resonance binding to immobilized MmpL3tb
[25] = biological target: purified MmpL3-GFP (Mycobacterium tuberculosis, UniProt P9WJV5); format: binding
[26] = tested on: Mtb H37Rv mc^26206 inverted membrane vesicles (IMVs); test: Succinate-driven proton translocation assay (ACMA) in inverted membrane vesicles; format: biochemical, Mycobacterium tuberculosis; conditions: one and four times MIC against Mtb
Protocol: (§1) FIG. 19A: The reactions were initiated by adding 5 mM succinate. Upon stabilization of the signal, control compounds (INH, RIF, nigericin), the MmpL3 inhibitors or diluent (water, used for INH, or 0.2% DMSO, used for all other compounds) were added and proton translocation monitored fluorimetrically. MmpL3 inhibitors and controls were used at one and four times their MIC concentrations against Mtb. Shown are the averages and standard deviations (error bars) of triplicate measurements.
(§2) Succinate-driven proton translocation assays with the fluorescent substrate ACMA were conducted as previously described (see e.g., Li et al. J. Med. Chem. 2014, 57: 3126-3139) to determine the effect of MmpL3 inhibitors on the electrochemical proton gradient of Mtb H37Rv mc^26206 and E. coli BL21(DE3) IMVs. IMVs (0.18 mg/mL membrane proteins) were pre-incubated at 37° C. in 10 mM HEPES-KOH pH 7.5, 100 mM KCl, 5 mM MgCl2 containing 2 μM ACMA and the baseline monitored for 10 min with a fluorescence spectrophotometer (Victor X5, PerkinElmer). The reaction was then initiated by adding 5 mM succinate. Upon stabilization of the signal, control compounds (INH, RIF, nigericin), MmpL3 inhibitors, or diluent (0.2% DMSO or water) were added and proton translocation monitored fluorimetrically. The excitation and emission wavelengths were 410 nm and 480 nm, respectively.

[27] = tested on: E. coli BL21(DE3) IMVs; test: as above; format: biochemical; conditions: 2 μg/mL
Protocol: as §1, §2

[28] = biological target: T1, MmpL3tb- and MmpL3tb-GFP-coated particles (Mycobacterium tuberculosis, UniProt P9WJV5); format: binding; conditions: 15 min at room temperature; various probe concentrations
T1 construct: His tag; made in house; host or cells: Mycobacterium smegmatis ΔmmpL3 carrying pMVGH1-mmpL3tb or pMVGH1-mmpL3tb-gfp

[29] = tested on: MmpL3tb-GFP in MsmgΔmmpL3/pMVGH1-mmpL3tb-GFP cells; format: cell-based; conditions: 2 μM probe, 4 h at 37° C.
[30] = Mycolicibacterium smegmatis, Tables 1A-1B, MmpL3 WT, read-out: MIC

Sequence of MmpL3tb (MmpL3^WT) (P9WJV5 whole entry): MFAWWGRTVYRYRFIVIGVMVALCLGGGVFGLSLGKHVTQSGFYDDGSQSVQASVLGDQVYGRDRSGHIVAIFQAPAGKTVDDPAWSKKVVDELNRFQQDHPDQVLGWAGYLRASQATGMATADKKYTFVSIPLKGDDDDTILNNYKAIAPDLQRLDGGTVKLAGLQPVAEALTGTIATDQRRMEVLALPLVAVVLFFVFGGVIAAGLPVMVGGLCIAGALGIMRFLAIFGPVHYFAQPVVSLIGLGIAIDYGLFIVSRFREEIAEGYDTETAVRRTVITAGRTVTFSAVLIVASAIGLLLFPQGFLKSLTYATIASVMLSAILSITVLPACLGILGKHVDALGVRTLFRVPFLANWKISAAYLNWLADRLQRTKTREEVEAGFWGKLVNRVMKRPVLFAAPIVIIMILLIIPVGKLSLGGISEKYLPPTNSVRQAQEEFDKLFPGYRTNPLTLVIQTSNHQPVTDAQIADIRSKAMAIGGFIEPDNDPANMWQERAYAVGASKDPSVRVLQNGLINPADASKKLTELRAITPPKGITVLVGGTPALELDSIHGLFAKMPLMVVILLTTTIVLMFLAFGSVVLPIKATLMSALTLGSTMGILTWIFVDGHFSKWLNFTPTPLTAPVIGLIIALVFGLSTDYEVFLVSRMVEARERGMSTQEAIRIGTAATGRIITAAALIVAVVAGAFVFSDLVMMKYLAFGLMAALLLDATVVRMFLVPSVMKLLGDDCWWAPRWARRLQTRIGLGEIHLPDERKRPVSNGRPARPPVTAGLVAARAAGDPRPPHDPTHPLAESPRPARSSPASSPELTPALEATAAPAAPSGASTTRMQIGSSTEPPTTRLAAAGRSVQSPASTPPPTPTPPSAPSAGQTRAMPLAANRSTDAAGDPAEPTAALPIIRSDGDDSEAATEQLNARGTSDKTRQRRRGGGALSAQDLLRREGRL
Sequence of purified MmpL3tb protein (P9WJV5 whole entry): as above
T1 sequence (P9WJV5 whole entry): as above
Sequence of purified MmpL3-GFP (P9WJV5 whole entry): as above

## Cc1cc(C)c2cc(C(=O)NC3CCCCCCC3)[nH]c2c1 [North 21]
[1]; [30]
  MIC: 0.05 µg/mL (≈ 0.168 µM)
[2]
  MIC: 0.2^b μg/mL
[3]
  MIC: 0.2^b μg/mL
[4]
  MIC: 0.2^b μg/mL
[5]
  MIC: 0.2^b μg/mL
[6]
  MIC: 0.05 µg/mL (≈ 0.168 µM)
[7]
  MIC: 0.05 µg/mL (≈ 0.168 µM)
[8]
  MIC: 0.1 µg/mL (≈ 0.335 µM)
[9]
  MIC: 0.1 µg/mL (≈ 0.335 µM)
[10]
  MIC: 0.05 µg/mL (≈ 0.168 µM)
[11]
  MIC: 0.2^b μg/mL
[12]
  MIC: 0.05 µg/mL (≈ 0.168 µM)
[13]
  BLI binding signal: consistently bound to MmpL3tb with the strongest signals

## AU1235
[1]; Table 2, MmpL3 WT
  MIC: 0.31 µg/mL
[1]; Tables 1A-1B, MmpL3 WT
  MIC: 0.39 µg/mL
[2]
  MIC: 1.56^b μg/mL and 1.25 μg/mL
[3]
  MIC: 3.13^a μg/mL and 5 μg/mL
[4]
  MIC: 12.5^a μg/mL
[5]
  MIC: 3.13^b μg/mL
[6]
  MIC: 1.56^b μg/mL
[7]
  MIC: 0.78 µg/mL
[8]
  MIC: 0.78 µg/mL
[9]
  MIC: 3.13^a μg/mL and 2.5 μg/mL
[10]
  MIC: 0.78 µg/mL
[11]
  MIC: 3.13^a μg/mL and 2.5 μg/mL
[12]
  MIC: 1.56^b μg/mL and 1.25 μg/mL
[14]
  MIC: 0.62^c μg/mL
[15]
  MIC: 0.62^c μg/mL
[16]
  MIC: 2.5-5 ^ μg/mL
[17]
  MIC: 0.62^c μg/mL
[18]
  MIC: 0.31-0.62^c μg/mL
[19]
  MIC: 0.62 µg/mL
[20]
  MIC: 0.15^c μg/mL
[21]
  MIC: 0.31^c μg/mL
[22]
  MIC: 0.62 µg/mL
[23]; against Mtb, FIG. 8 legend
  MIC: 0.48 µM
[24]
  Model (best-fit kinetic model): Two-state reaction
  SPR binding signal: strong SPR signals
  ka1: 1858.1 M⁻¹ s⁻¹
  ka2: 0.019 1/RU*s
  kd1: 0.39 s⁻¹
  kd2: 0.0316 s⁻¹
[24]; read-out: KD1
  Kd: 132 µM
[13]
  BLI binding signal: weak binding signal
[25]
  displacement of Compound 2 from purified MmpL3tb: clear concentration-dependent displacement
[26]
  effect on ΔpH of Mtb IMVs: increase of fluorescence intensity indicative of ΔpH collapse; also recorded: also collapsed ΔpH in this assay when used at 4-fold MIC concentration

## CO[C@H]1/C=C/O[C@@]2(C)Oc3c(C)c(O)c4c(O)c(c(/C=N/N5CCN(C)CC5)c(O)c4c3C2=O)NC(=O)/C(C)=C\C=C\[C@H](C)[C@H](O)[C@@H](C)[C@@H](O)[C@@H](C)[C@H](OC(C)=O)[C@@H]1C [RIF, rifampicin]
[23]; Mycobacterium tuberculosis
  MIC: 0.19 µM (≈ 0.156 µg/mL)

## CO[C@@H]1C[C@@H](C[C@H]2CC[C@H](C)[C@H]([C@@H](C)C(=O)O)O2)O[C@]2(O[C@](C)([C@H]3CC[C@@](C)([C@@H]4O[C@@H]([C@H]5O[C@@](O)(CO)[C@H](C)C[C@@H]5C)C[C@@H]4C)O3)C[C@H]2C)[C@@H]1C [nigericin]
[23]; Mycobacterium tuberculosis, against Mtb, FIG. 8 legend
  MIC: 4.31 µM (≈ 3.12 µg/mL)
[26]
  effect on ΔpH of Mtb IMVs: increase of fluorescence intensity indicative of ΔpH collapse
[27]
  effect on ΔpH of E. coli IMVs: collapse the ΔpH of E. coli IMVs

## N-cyclooctyl-5-((1-(3-(3-(5,5-difluoro-7,9-dimethyl-5H-5λ^4,6λ^4-dipyrrolo[1,2-c:2′,1′-f][1,3,2]diazaborinin-3-yl)propanamido)propyl)-1H-1,2,3-triazol-4-yl)methoxy)-1H-indole-2-carboxamide [Compound 3]
[1]; Tables 1A-1B, MmpL3 WT
  MIC: 32 µg/mL

## C[C@@H]1C(NC(=O)c2cc3cc(OCc4cn(CCCCCCNC(=O)c5ccc(-c6c7ccc(=[N+](C)C)cc-7oc7cc(N(C)C)ccc67)c(C(=O)O)c5)nn4)ccc3[nH]2)C[C@H]2C[C@@H]1C2(C)C (some centres unmarked) [Compound 2]
[1]; [30]
  MIC: 4 µg/mL
[2]
  MIC: 8 µg/mL
[3]
  MIC: 8 µg/mL
[4]
  MIC: 4 µg/mL
[5]
  MIC: 8 µg/mL
[6]
  MIC: 4 µg/mL
[7]
  MIC: 16^b μg/mL
[8]
  MIC: 4 µg/mL
[9]
  MIC: 8 µg/mL
[10]
  MIC: 8 µg/mL
[11]
  MIC: 4 µg/mL
[12]
  MIC: 4 µg/mL
[24]; SPR global fit
  ka2: 540.582 1/RU*s
  kd1: 0.02 s⁻¹
  kd2: 0.1556 s⁻¹
[24]; SPR global fit, HEPES-TX buffer with 5% DMSO
  ka1: 36380.1 M⁻¹ s⁻¹
[24]; SPR sensorgrams fit globally
  Model (best-fit kinetic model): Heterogeneous ligand
[24]; equilibrium dissociation constant calculated from the rate constants, read-out: KD1
  Kd: 0.5 µM
[24]; equilibrium dissociation constant calculated from the rate constants, read-out: KD2
  Kd: 288 µM
[24]; in words
  SPR binding signal: strong SPR signals
[28]
  probe binding to coated particles (MFI): concentration-dependent binding
[29]
  colocalization with MmpL3tb-GFP: colocalization of the probes with MmpL3tb-GFP

## Methyl 4-(3-((3s,5s,7s)-adamantan-1-yl)ureido)-2-((1-(3-(3-(5,5-difluoro-7,9-dimethyl-5H-5λ^4,6λ^4-dipyrrolo[1,2-c:2′,1′-f][1,3,2]diazaborinin-3-yl)propanamido)propyl)-1H-1,2,3-triazol-4-yl)methoxy)benzoate [Compound 4]
[1]; Tables 1A-1B, MmpL3 WT
  MIC: 64 µg/mL
[28]
  probe binding to coated particles (MFI): concentration-dependent binding

## O=C(O)c1cn(C2CC2)c2cc(N3CCNCC3)c(F)cc2c1=O [CIP, ciprofloxacin]
[1]; Mycolicibacterium smegmatis
  MIC: 0.31 µg/mL (≈ 0.936 µM)
[2]
  MIC: 0.31 µg/mL (≈ 0.936 µM)
[3]
  MIC: 0.31 µg/mL (≈ 0.936 µM)
[9]
  MIC: 0.31 µg/mL (≈ 0.936 µM)
[11]
  MIC: 0.31 µg/mL (≈ 0.936 µM)
[12]
  MIC: 0.31 µg/mL (≈ 0.936 µM)
[14]; Mycolicibacterium smegmatis, read-out: MIC
  MIC: 0.31 µg/mL (≈ 0.936 µM)
[15]
  MIC: 0.31 µg/mL (≈ 0.936 µM)
[16]
  MIC: 0.31 µg/mL (≈ 0.936 µM)
[17]
  MIC: 0.31 µg/mL (≈ 0.936 µM)
[18]
  MIC: 0.31 µg/mL (≈ 0.936 µM)
[19]
  MIC: 0.31 µg/mL (≈ 0.936 µM)
[20]
  MIC: 0.31 µg/mL (≈ 0.936 µM)
[21]
  MIC: 0.31 µg/mL (≈ 0.936 µM)
[22]
  MIC: 0.31 µg/mL (≈ 0.936 µM)

## N#CC(C#N)=NNc1cccc(Cl)c1 [CCCP]
[23]; against Mtb, FIG. 8 legend
  MIC: 6.25 µM (≈ 1.28 µg/mL)

## C[C@@H]1[C@H]2C[C@@H](C[C@H]1NC(=O)c1cc3ccccc3[nH]1)C2(C)C [North 4]
[1]; [30]
  MIC: 0.16 µg/mL (≈ 0.54 µM)
[2]
  MIC: 1.28^a μg/mL
[3]
  MIC: 1.28^a μg/mL
[4]
  MIC: 1.28^a μg/mL
[5]
  MIC: 1.28^a μg/mL
[6]
  MIC: 0.08 µg/mL (≈ 0.27 µM)
[7]
  MIC: 0.32 µg/mL (≈ 1.08 µM)
[8]
  MIC: 0.64^b μg/mL
[9]
  MIC: 0.64^b μg/mL
[10]
  MIC: 0.32 µg/mL (≈ 1.08 µM)
[11]
  MIC: 1.28^a μg/mL
[12]
  MIC: 0.32 µg/mL (≈ 1.08 µM)
[13]
  BLI binding signal: consistently bound to MmpL3tb with the strongest signals
